Each structure is given as a SMILES string. The source made the active and inactive calls. No cut-off for these calls is given here.

The test concerns the target Adrenergic receptor beta (Homo sapiens) (UniProt P08588+P07550+P13945). As to the kind of experiment: Beta adrenoceptor blocking potency by inhibition of 50% of the tachycardia produced by a submaximal dose of the isoproterenol (0.2ug/kg, intravenously). The class given is functional. Conditions: Felis catus.
`Cc1ccc(OCC(O)C(C)NC(C)C)cc1` (centres undefined): the DOSE result is “inactive”. In the case of `COc1ccc(CCNC(C)C(O)COc2cccc3ccccc23)cc1OC` (centres undefined), the DOSE entry was “inactive”.

Regarding `CC(C)NC(C)C(O)COc1ccc(CC(N)=O)cc1` (centres undefined), the DOSE result is “inactive”.

Take `C=CCc1cc(CC(N)=O)ccc1OCC(O)C(C)NC(C)(C)C` (centres undefined): the DOSE result was “inactive”.

In the case of `CCC(=O)Nc1cccc2c(OCC(O)C(C)NC(C)C)cccc12` (centres undefined), the DOSE result was “inactive”. The same measure for `CCC(=O)Nc1ccc(OCC(O)C(C)NC(C)(C)C)cc1` (centres undefined): “inactive”.

On to `CC(=O)Nc1ccc(OCC(O)C(C)NC(C)C)cc1` (centres undefined), for which the DOSE result is “inactive”. As for `CC(C)NC(C)C(O)COc1ccc(Cl)c(Cl)c1` (centres undefined), the entry is “inactive”; as for `COc1ccc(CCNC(C)C(O)COc2ccc(CC(N)=O)cc2)cc1OC` (centres undefined), “inactive”; as for `CC(C)NC(C)C(O)COc1ccccc1-c1nc2ccccc2s1` (centres undefined), “inactive”. `CC(NC(C)(C)C)C(O)COc1ccccc1/C=C/C#N` (centres undefined): the DOSE entry was “inactive”. For `CC(NC(C)(C)C)C(O)COc1cccc2sccc12` (centres undefined), the DOSE entry was “inactive”. The same measure for `CC(C)NC(C)C(O)COc1ccc(OCc2ccccc2)cc1` (centres undefined): “inactive”. As for `CCOc1cc(CNC(=O)CC)ccc1OCC(O)C(C)NC(C)C` (centres undefined), the entry is “inactive”; as for `CCNC(C)C(O)COc1ccc(NC(C)=O)cc1` (centres undefined), “inactive”; as for `CC(C)NC(C)C(O)COc1ccc2ccccc2c1` (centres undefined), “inactive”. As for `CCC(=O)Nc1cccc2c(OCC(O)C(C)NC(C)(C)C)cccc12` (centres undefined), the entry is “inactive”; as for `Cc1csc2cccc(OCC(O)C(C)NC(C)(C)C)c12` (centres undefined), “inactive”; as for `CCNC(C)C(O)COc1ccc(CC(N)=O)cc1` (centres undefined), “inactive”. For `CCC(=O)Nc1ccc(OCC(O)C(C)NC(C)(C)C)c([N+](=O)[O-])c1` (centres undefined), the DOSE entry is “inactive”. The same measure for `CC(C)CNC(C)C(O)COc1cccc2ccccc12` (centres undefined): “inactive”; for `CC(C)CNC(=O)c1ccc(OCC(O)C(C)NC(C)C)c(Cl)c1` (centres undefined): “inactive”; for `CC(NC(C)(C)C)C(O)COc1ccc(CC(N)=O)cc1` (centres undefined): “inactive”. With `CC(NC(C)(C)C)C(O)COc1ccccc1C#N` (centres undefined), the DOSE entry was “inactive”. As for `CC(=O)Nc1ccc(OCC(O)C(C)NC(C)(C)C)cc1` (centres undefined), the entry is “inactive”; as for `CC(NC(C)(C)C)C(O)COc1ccc(CC(N)=O)cc1F` (centres undefined), “inactive”. For `CC(NC(C)(C)C)C(O)COc1cccc2ccccc12` (centres undefined), the DOSE entry was “inactive”.

Consider `CC(=O)Nc1ccc(OCC(O)C(C)NC(C)(C)CO)cc1` (centres undefined), for which the DOSE entry is “inactive”. The same measure for `CC(=O)Nc1ccc(OCC(O)C(C)N)cc1` (centres undefined): “inactive”.

The values are drawn from ChEMBL document CHEMBL1121749, “Beta-adrenergic blocking agents. 21. threo-1-(Aryloxy)-3-(alkylamino)butan-2-ols” (J Med Chem, 1981).
